According to PubChem BioAssay AID1259407 (Chemical Carcinogenesis Research Information System (CCRIS), 2018):
The source made the active and inactive calls. No rule for the calls is given here.

System: CCRIS mutagenicity, Ames/micronucleus/aberration tests
Test: CCRIS mutagenicity studies
[1] = Test System: AMES SALMONELLA TYPHIMURIUM, Strain/Indicator: TA98, Metabolic Activation: NONE, Method: PREINCUBATION
[2] = Test System: AMES SALMONELLA TYPHIMURIUM, Strain/Indicator: TA98, Metabolic Activation: RAT, LIVER, S-9, AROCLOR 1254, Method: STANDARD PLATE
[3] = Test System: AMES SALMONELLA TYPHIMURIUM, Strain/Indicator: TA100, Metabolic Activation: NONE, Method: PREINCUBATION
[4] = Test System: AMES SALMONELLA TYPHIMURIUM, Strain/Indicator: TA100, Metabolic Activation: RAT, LIVER, S-9, AROCLOR 1254, Method: STANDARD PLATE
[5] = Test System: AMES SALMONELLA TYPHIMURIUM, Strain/Indicator: TA1535, Metabolic Activation: NONE, Method: PREINCUBATION
[6] = Test System: AMES SALMONELLA TYPHIMURIUM, Strain/Indicator: TA1537, Metabolic Activation: NONE, Method: PREINCUBATION
[7] = Test System: AMES SALMONELLA TYPHIMURIUM, Strain/Indicator: TA1538, Metabolic Activation: RAT, LIVER, S-9, AROCLOR 1254, Method: STANDARD PLATE

CC1=CC(=O)C=C2CC[C@@H]3[C@H](CC[C@]4(C)C(=O)CC[C@@H]34)[C@@]12C
mutagenic call (End Point: IN VITRO CHROMOSOMAL ABERRATIONS, Test System: HUMAN PERIPHERAL LYMPHOCYTES, Metabolic Activation: NONE): inactive; negative | mutagenic call (End Point: IN VITRO CHROMOSOMAL ABERRATIONS, Test System: HUMAN PERIPHERAL LYMPHOCYTES, Metabolic Activation: RAT, LIVER, S-9, AROCLOR 1254): inactive; negative | mutagenic call (End Point: IN VIVO MICRONUCLEUS, Test System: BONE MARROW POLYCHROMATIC ERYTHROCYTES, Species: MOUSE, Strain/Sex: NMRI/MALE, FEMALE, Route: INTRAGASTRIC): inactive; negative | mutagenic call [1]: inactive; negative | mutagenic call (Test System: AMES SALMONELLA TYPHIMURIUM, Strain/Indicator: TA98, Metabolic Activation: NONE, Method: STANDARD PLATE): inactive; negative | mutagenic call (Test System: AMES SALMONELLA TYPHIMURIUM, Strain/Indicator: TA98, Metabolic Activation: RAT, LIVER, S-9, AROCLOR 1254, Method: PREINCUBATION): inactive; negative | mutagenic call [2]: inactive; negative | mutagenic call [3]: inactive; negative | mutagenic call (Test System: AMES SALMONELLA TYPHIMURIUM, Strain/Indicator: TA100, Metabolic Activation: NONE, Method: STANDARD PLATE): inactive; negative | mutagenic call (Test System: AMES SALMONELLA TYPHIMURIUM, Strain/Indicator: TA100, Metabolic Activation: RAT, LIVER, S-9, AROCLOR 1254, Method: PREINCUBATION): inactive; negative | mutagenic call [4]: inactive; negative | mutagenic call [5]: inactive; negative | mutagenic call (Test System: AMES SALMONELLA TYPHIMURIUM, Strain/Indicator: TA1535, Metabolic Activation: NONE, Method: STANDARD PLATE): inactive; negative | mutagenic call (Test System: AMES SALMONELLA TYPHIMURIUM, Strain/Indicator: TA1535, Metabolic Activation: RAT, LIVER, S-9, AROCLOR 1254, Method: PREINCUBATION): inactive; negative | mutagenic call (Test System: AMES SALMONELLA TYPHIMURIUM, Strain/Indicator: TA1535, Metabolic Activation: RAT, LIVER, S-9, AROCLOR 1254, Method: STANDARD PLATE): inactive; negative | mutagenic call [6]: inactive; negative | mutagenic call (Test System: AMES SALMONELLA TYPHIMURIUM, Strain/Indicator: TA1537, Metabolic Activation: NONE, Method: STANDARD PLATE): inactive; negative | mutagenic call (Test System: AMES SALMONELLA TYPHIMURIUM, Strain/Indicator: TA1537, Metabolic Activation: RAT, LIVER, S-9, AROCLOR 1254, Method: PREINCUBATION): inactive; negative | mutagenic call (Test System: AMES SALMONELLA TYPHIMURIUM, Strain/Indicator: TA1537, Metabolic Activation: RAT, LIVER, S-9, AROCLOR 1254, Method: STANDARD PLATE): inactive; negative | mutagenic call (Test System: AMES SALMONELLA TYPHIMURIUM, Strain/Indicator: TA1538, Metabolic Activation: NONE, Method: PREINCUBATION): inactive; negative | mutagenic call (Test System: AMES SALMONELLA TYPHIMURIUM, Strain/Indicator: TA1538, Metabolic Activation: NONE, Method: STANDARD PLATE): inactive; negative | mutagenic call (Test System: AMES SALMONELLA TYPHIMURIUM, Strain/Indicator: TA1538, Metabolic Activation: RAT, LIVER, S-9, AROCLOR 1254, Method: PREINCUBATION): inactive; negative | mutagenic call [7]: inactive; negative | mutagenic call (Test System: CHINESE HAMSTER V-79, Strain/Indicator: V-79 (HGPRT)/6-THIOGUANINE, Metabolic Activation: NONE): inactive; negative | mutagenic call (Test System: CHINESE HAMSTER V-79, Strain/Indicator: V-79 (HGPRT)/6-THIOGUANINE, Metabolic Activation: RAT, LIVER, S-9, AROCLOR 1254): inactive; negative

C=CC(O)CO (stereo not drawn)
mutagenic call (Test System: Mouse splenic T lymphocytes in vivo, Strain/Indicator: B6C3F1 females (HPRT)/6-Thioguanine, Metabolic Activation: None, Method: Inhalation at 0, 6, 18, 36 ppm 6 hr/day for 4 wks (sacrifice 2-8 wks post exposure)): active; positive (especially at 5.5-6 wk after last exposure) | mutagenic call (Test System: Mouse splenic T lymphocytes in vivo, Strain/Indicator: B6C3F1 males (HPRT)/6-Thioguanine, Metabolic Activation: None, Method: Inhalation at 0, 6, 18, 36 ppm 6 hr/day for 4 wks (sacrifice 2-8 wks post exposure)): active; positive (especially at 5.5-6 wk after last exposure) | mutagenic call (Test System: Rat splenic T lymphocytes in vivo, Strain/Indicator: F344 females (HPRT)/6-Thioguanine, Metabolic Activation: None, Method: Inhalation at 0, 36 ppm 6 hr/day for 4 wks (sacrifice 2-8 wks post exposure)): active; positive (at 5-6 wks)

Cc1cc2c(c3ccc4ccccc4c13)CCC2=O
mutagenic call [2]: active; positive | mutagenic call (Test System: AMES SALMONELLA TYPHIMURIUM, Strain/Indicator: TA100, Metabolic Activation: RAT, LIVER, MICROSOMES, 15,16-DIHYDRO-11-METHYL-17(H)-CYCLOPENTA[A] PHENANTHREN-17-ONE, Method: STANDARD PLATE): inactive; negative | mutagenic call (Test System: AMES SALMONELLA TYPHIMURIUM, Strain/Indicator: TA100, Metabolic Activation: RAT, LIVER, MICROSOMES, BENZO[A]PYRENE, Method: STANDARD PLATE): active; positive | mutagenic call (Test System: AMES SALMONELLA TYPHIMURIUM, Strain/Indicator: TA100, Metabolic Activation: RAT, LIVER, MICROSOMES, CLOFIBRATE, Method: STANDARD PLATE): inactive; negative | mutagenic call (Test System: AMES SALMONELLA TYPHIMURIUM, Strain/Indicator: TA100, Metabolic Activation: RAT, LIVER, MICROSOMES, DEXAMETHASONE, Method: STANDARD PLATE): inactive; negative | mutagenic call (Test System: AMES SALMONELLA TYPHIMURIUM, Strain/Indicator: TA100, Metabolic Activation: RAT, LIVER, MICROSOMES, ISONIAZID, Method: STANDARD PLATE): inactive; negative | mutagenic call (Test System: AMES SALMONELLA TYPHIMURIUM, Strain/Indicator: TA100, Metabolic Activation: RAT, LIVER, MICROSOMES, PHENOBARBITONE, Method: STANDARD PLATE): inactive; negative | mutagenic call (Test System: AMES SALMONELLA TYPHIMURIUM, Strain/Indicator: TA100, Metabolic Activation: RAT, LIVER, MICROSOMES, Method: STANDARD PLATE): inactive; negative | mutagenic call [4]: active; positive | mutagenic call [7]: active; positive

CCNC(=O)Nc1ccc(OCC(O)CNC(C)(C)C)c(C(C)=O)c1 (stereo not drawn)
mutagenic call [1]: inactive; negative | mutagenic call (Test System: AMES SALMONELLA TYPHIMURIUM, Strain/Indicator: TA98, Metabolic Activation: RAT, LIVER, S-9, AROCLOR 1254 (10 OR 50 µL/PLATE), Method: PREINCUBATION): inactive; negative | mutagenic call [3]: inactive; negative | mutagenic call (Test System: AMES SALMONELLA TYPHIMURIUM, Strain/Indicator: TA100, Metabolic Activation: RAT, LIVER, S-9, AROCLOR 1254 (10 OR 50 µL/PLATE), Method: PREINCUBATION): inactive; negative | mutagenic call [5]: inactive; negative | mutagenic call (Test System: AMES SALMONELLA TYPHIMURIUM, Strain/Indicator: TA1535, Metabolic Activation: RAT, LIVER, S-9, AROCLOR 1254 (10 OR 50 µL/PLATE), Method: PREINCUBATION): inactive; negative | mutagenic call [6]: inactive; negative | mutagenic call (Test System: AMES SALMONELLA TYPHIMURIUM, Strain/Indicator: TA1537, Metabolic Activation: RAT, LIVER, S-9, AROCLOR 1254 (10 OR 50 µL/PLATE), Method: PREINCUBATION): inactive; negative | mutagenic call (Test System: E. COLI, Strain/Indicator: WP2 UVRA, Metabolic Activation: NONE, Method: PREINCUBATION): inactive; negative | mutagenic call (Test System: E. COLI, Strain/Indicator: WP2 UVRA, Metabolic Activation: RAT, LIVER, S-9, AROCLOR 1254 (10 OR 50 µL/PLATE), Method: PREINCUBATION): inactive; negative
